Measurements from patent US9714250B2, “Crystalline forms of temozolomide and the method for preparing same” (Jiangsu Tasly Diyi Pharmaceutical Co., Ltd., priority 2013, dated 2017).

Test: High humidity test (stability)
Assay type: physicochemical
Details: for Stability in the high-humidity test (conclusion) / Appearance and color / Content / Weight gain of moisture absorption / Related substances: 25° C., relative humidity 75±5%; for Stability in the high-humidity test (conclusion): 10 days; for Related substances: HPLC; for Weight gain of moisture absorption (trend): under the high-humidity condition
Method: In the following test, related substances were determined as follows: HPLC method was used and chromatographic conditions were as follows: C18 column using octadecylsilane bonded silica gel as the filler, isocratic elution using methanol: 0.5% glacial acetic acid solution (10:90) as the mobile phase, and detection wavelength was at 254 nm.
Crystalline Form A of Temozolomide (Form A0 prepared by the method of EXAMPLE 1) was placed in 25° C. incubator (relative humidity: 75±5%), sampled and determined on the 5th and 10th day.
Crystalline Form B of Temozolomide (Form B0 prepared by the method of EXAMPLE 6) was placed in 25° C. incubator (relative humidity: 75±5%), sampled and determined on the 5th and 10th day.
Crystalline Form C of Temozolomide (Form C prepared by the method of EXAMPLE 14) was placed in 25° C. incubator (relative humidity: 75±5%), sampled and determined on the 5th and 10th day.

Compound | Stability in the high-humidity test (conclusion) | Appearance and color (0th day) | Content (0th day) | Weight gain of moisture absorption (0th day) | Related substances (0th day) | Appearance and color (5th day) | Content (5th day) | Weight gain of moisture absorption (5th day) | Related substances (5th day) | Appearance and color (10th day) | Content (10th day) | Weight gain of moisture absorption (10th day) | Related substances (10th day) | Weight gain of moisture absorption (trend)
Cn1nnc2c(C(N)=O)ncn2c1=O [Form A, Temozolomide] | stable | White powder | 99.94% | 0% | Not detected | White powder | 99.73% | 0.32% | Not detected | White powder | 99.52% | 0.51% | Not detected | slightly increased
Cn1nnc2c(C(N)=O)ncn2c1=O [Form B, Temozolomide] | stable | White powder | 99.97% | 0% | Not detected | White powder | 99.63% | 0.37% | Not detected | White powder | 99.57% | 0.52% | Not detected | slightly increased
Cn1nnc2c(C(N)=O)ncn2c1=O [Form C, Temozolomide] | stable | White powder | 99.91% | 0% | Not detected | White powder | 99.85% | 0.29% | Not detected | White powder | 99.63% | 0.47% | Not detected | slightly increased
